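Cells were grown in 96-well plates and exposed to each compound for 48 hours at five concentrations; endpoints were interpolated linearly between bracketing concentrations, or set to the highest concentration if not reached. GI50 = concentration required for 50% inhibition of growth.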 Active and inactive are the calls of the source. Cut-off read from the data, not from the text of the source: active = GI50 up to about 1.1 µM and inactive = higher.
Experiments:
Assay in all cases: inhibition of tumour cell growth, NCI panel, 48 h
SK-MEL-5 = tested on: SK-MEL-5
UO-31 = tested on: UO-31
SK-MEL-28 = tested on: SK-MEL-28
MCF7 = tested on: MCF7
Hs-578T = tested on: Hs-578T
MDA-MB-435 = tested on: MDA-MB-435
HCT-116 = tested on: HCT-116
HOP-62 = tested on: HOP-62
MDA-N = tested on: MDA-N
NCI-H460 = tested on: NCI-H460
UACC-62 = tested on: UACC-62
SF-295 = tested on: SF-295
MOLT-4 = tested on: MOLT-4
LOX IMVI = tested on: LOX IMVI
SNB-75 = tested on: SNB-75
ACHN = tested on: ACHN
SNB-19 = tested on: SNB-19
EKVX = tested on: EKVX
K562 = tested on: K562
HOP-92 = tested on: HOP-92

| Compound | GI50 (SK-MEL-5) | GI50 (UO-31) | GI50 (SK-MEL-28) | GI50 (MCF7) | GI50 (Hs-578T) | GI50 (MDA-MB-435) | GI50 (HCT-116) | GI50 (HOP-62) | GI50 (MDA-N) | GI50 (NCI-H460) | GI50 (UACC-62) | GI50 (SF-295) | GI50 (MOLT-4) | GI50 (LOX IMVI) | GI50 (SNB-75) | GI50 (ACHN) | GI50 (SNB-19) | GI50 (EKVX) | GI50 (K562) | GI50 (HOP-92) |
| --- | --- | --- | --- | --- | --- | --- | --- | --- | --- | --- | --- | --- | --- | --- | --- | --- | --- | --- | --- | --- |
| O=C(Nn1c(-c2ccccc2)nc2ccccc2c1=O)c1ccc([N+](=O)[O-])cc1 | 64.1 µM (inactive) | > 100 µM (inactive) | 72.3 µM (inactive) | 58.7 µM (inactive) | > 100 µM (inactive) | > 100 µM (inactive) | > 10 µM (inactive) | > 100 µM (inactive) | > 100 µM (inactive) | > 100 µM (inactive) | 45.2 µM (inactive) | > 100 µM (inactive) | > 100 µM (inactive) | > 100 µM (inactive) | > 100 µM (inactive) | > 100 µM (inactive) | > 100 µM (inactive) | > 100 µM (inactive) | > 100 µM (inactive) | 32.4 µM (inactive) |
| Oc1ccccc1-n1nc2ccc3nonc3c2n1 | > 100 µM (inactive) | 77.4 µM (inactive) | > 100 µM (inactive) | > 100 µM (inactive) | > 100 µM (inactive) | > 100 µM (inactive) | > 100 µM (inactive) | 90.2 µM (inactive) | > 100 µM (inactive) | > 100 µM (inactive) | > 100 µM (inactive) | > 100 µM (inactive) | > 100 µM (inactive) | > 100 µM (inactive) | > 100 µM (inactive) | > 100 µM (inactive) | > 100 µM (inactive) | 48.1 µM (inactive) | > 100 µM (inactive) | > 100 µM (inactive) |
| C/N=C(N)/N=C(\N)Nc1cc2ccccc2c2ccccc12 | 16.5 µM (inactive) | 11.9 µM (inactive) | 17.8 µM (inactive) | 13.2 µM (inactive) | 16.9 µM (inactive) | 15.9 µM (inactive) | 12.9 µM (inactive) | 17.5 µM (inactive) | 13.9 µM (inactive) | 11.1 µM (inactive) | 14.9 µM (inactive) | 17.1 µM (inactive) | 10.4 µM (inactive) | 13 µM (inactive) | 13 µM (inactive) | 13.5 µM (inactive) | 15.8 µM (inactive) | 16.3 µM (inactive) | 19.1 µM (inactive) | 14.9 µM (inactive) |
| Cc1cc(C)c(C2=NOC(c3ccccc3)(c3cc(=O)n(-c4ccccc4)s3)O2)c(C)c1 (stereo not given) | 74 µM (inactive) | 20.8 µM (inactive) | 32 µM (inactive) | 18.6 µM (inactive) | 52.6 µM (inactive) | 48.3 µM (inactive) | > 100 µM (inactive) | 33.2 µM (inactive) | 38.8 µM (inactive) | 43.1 µM (inactive) | 23.2 µM (inactive) | > 100 µM (inactive) | 41.9 µM (inactive) | 15.8 µM (inactive) | 26.5 µM (inactive) | 24.2 µM (inactive) | 50.6 µM (inactive) | 21.9 µM (inactive) | > 100 µM (inactive) | 23.2 µM (inactive) |
| N=c1oc2ccccc2cc1C(=O)NC12CC3CC(CC(C3)C1)C2 | 21.2 µM (inactive) | 0.0887 µM (active) | 40.4 µM (inactive) | 3.7 µM (inactive) | 32.4 µM (inactive) | 18.6 µM (inactive) | 15.6 µM (inactive) | 22.6 µM (inactive) | 26.2 µM (inactive) | 14.4 µM (inactive) | 15.8 µM (inactive) | 20.6 µM (inactive) | 2.41 µM (inactive) | 13.8 µM (inactive) | 19.3 µM (inactive) | 6.89 µM (inactive) | 24.4 µM (inactive) | 21.9 µM (inactive) | 13.9 µM (inactive) | 25.8 µM (inactive) |
| N#Cc1c(Cl)cc(C#N)n2c1nc1ccccc12 | 15.5 µM (inactive) | 7.85 µM (inactive) | 13.3 µM (inactive) | 9.2 µM (inactive) | 25.8 µM (inactive) | 11.7 µM (inactive) | 4.11 µM (inactive) | 21.6 µM (inactive) | 10.6 µM (inactive) | 14.9 µM (inactive) | 18.3 µM (inactive) | 15.3 µM (inactive) | 2.3 µM (inactive) | 2.5 µM (inactive) | 19.2 µM (inactive) | 15.2 µM (inactive) | > 53.1 µM (inactive) | 20.7 µM (inactive) | 3.03 µM (inactive) | 8.04 µM (inactive) |
| CCOC(=O)c1c(SCCO)n(-c2ccccc2)c(=S)n(-c2ccccc2)c1=O | > 100 µM (inactive) | > 100 µM (inactive) | > 100 µM (inactive) | > 100 µM (inactive) | > 100 µM (inactive) | > 100 µM (inactive) | > 100 µM (inactive) | > 100 µM (inactive) | > 100 µM (inactive) | > 100 µM (inactive) | > 100 µM (inactive) | > 100 µM (inactive) | > 100 µM (inactive) | > 100 µM (inactive) | > 100 µM (inactive) | > 100 µM (inactive) | > 100 µM (inactive) | > 100 µM (inactive) | > 100 µM (inactive) | > 100 µM (inactive) |
| COc1cnc2cc(C(=O)O)c3c([N+](=O)[O-])cccc3c2c1 | > 100 µM (inactive) | > 100 µM (inactive) | > 100 µM (inactive) | > 100 µM (inactive) | > 100 µM (inactive) | > 100 µM (inactive) | > 100 µM (inactive) | > 100 µM (inactive) | > 100 µM (inactive) | > 100 µM (inactive) | > 100 µM (inactive) | > 100 µM (inactive) | > 100 µM (inactive) | > 100 µM (inactive) | > 100 µM (inactive) | > 100 µM (inactive) | > 100 µM (inactive) | > 100 µM (inactive) | > 100 µM (inactive) | > 100 µM (inactive) |
| CC1OC(c2ccc3c(c2O)C(=O)C2=C(C3=O)C3(O)C(=O)CC(C)(O)CC3(O)C=C2)CC(O)C1O (stereo not given) | 11 µM (inactive) | 17.1 µM (inactive) | 15.7 µM (inactive) | 2.79 µM (inactive) | 20.1 µM (inactive) | 10.6 µM (inactive) | 5.26 µM (inactive) | 26.8 µM (inactive) | 3.23 µM (inactive) | 24.2 µM (inactive) | 14.9 µM (inactive) | 16.6 µM (inactive) | 3.81 µM (inactive) | 14 µM (inactive) | 18.2 µM (inactive) | 13.6 µM (inactive) | 18.4 µM (inactive) | 16 µM (inactive) | 2.7 µM (inactive) | 14.7 µM (inactive) |
| CCN(CC)CC(O)C1CCC(c2ccccc2)CC1 (stereo not given) | 13.7 µM (inactive) | 14.8 µM (inactive) | 25.6 µM (inactive) | 22.5 µM (inactive) | 30.5 µM (inactive) | 17.1 µM (inactive) | 23.2 µM (inactive) | 30.9 µM (inactive) | 16.3 µM (inactive) | 25.6 µM (inactive) | 15.6 µM (inactive) | 17.1 µM (inactive) | 43.8 µM (inactive) | 17.4 µM (inactive) | 23.7 µM (inactive) | 18 µM (inactive) | 25.8 µM (inactive) | 0.437 µM (active) | 26.8 µM (inactive) | 18.6 µM (inactive) |
| CN(C)C(Cc1c[nH]cn1)C(=O)N1CCCC1C(N)=O (stereo not given) | > 100 µM (inactive) | > 100 µM (inactive) | > 100 µM (inactive) | > 100 µM (inactive) | > 100 µM (inactive) | > 100 µM (inactive) | > 100 µM (inactive) | > 100 µM (inactive) | > 100 µM (inactive) | > 100 µM (inactive) | > 100 µM (inactive) | > 100 µM (inactive) | > 100 µM (inactive) | > 100 µM (inactive) | > 100 µM (inactive) | > 100 µM (inactive) | > 100 µM (inactive) | > 100 µM (inactive) | > 100 µM (inactive) | > 100 µM (inactive) |

Source: ChEMBL document CHEMBL1201862, “PubChem BioAssay data set” (2004)
